{"source": "patent US10039806B2", "about": "“Methods and compositions for treating antiprogestin-resistant cancers” (Fundación Sales, priority 2011, dated 2018)", "key": {"PR": {"target": "T1, PR (Homo sapiens, UniProt P06401)", "T1 sequence (P06401 1-933)": "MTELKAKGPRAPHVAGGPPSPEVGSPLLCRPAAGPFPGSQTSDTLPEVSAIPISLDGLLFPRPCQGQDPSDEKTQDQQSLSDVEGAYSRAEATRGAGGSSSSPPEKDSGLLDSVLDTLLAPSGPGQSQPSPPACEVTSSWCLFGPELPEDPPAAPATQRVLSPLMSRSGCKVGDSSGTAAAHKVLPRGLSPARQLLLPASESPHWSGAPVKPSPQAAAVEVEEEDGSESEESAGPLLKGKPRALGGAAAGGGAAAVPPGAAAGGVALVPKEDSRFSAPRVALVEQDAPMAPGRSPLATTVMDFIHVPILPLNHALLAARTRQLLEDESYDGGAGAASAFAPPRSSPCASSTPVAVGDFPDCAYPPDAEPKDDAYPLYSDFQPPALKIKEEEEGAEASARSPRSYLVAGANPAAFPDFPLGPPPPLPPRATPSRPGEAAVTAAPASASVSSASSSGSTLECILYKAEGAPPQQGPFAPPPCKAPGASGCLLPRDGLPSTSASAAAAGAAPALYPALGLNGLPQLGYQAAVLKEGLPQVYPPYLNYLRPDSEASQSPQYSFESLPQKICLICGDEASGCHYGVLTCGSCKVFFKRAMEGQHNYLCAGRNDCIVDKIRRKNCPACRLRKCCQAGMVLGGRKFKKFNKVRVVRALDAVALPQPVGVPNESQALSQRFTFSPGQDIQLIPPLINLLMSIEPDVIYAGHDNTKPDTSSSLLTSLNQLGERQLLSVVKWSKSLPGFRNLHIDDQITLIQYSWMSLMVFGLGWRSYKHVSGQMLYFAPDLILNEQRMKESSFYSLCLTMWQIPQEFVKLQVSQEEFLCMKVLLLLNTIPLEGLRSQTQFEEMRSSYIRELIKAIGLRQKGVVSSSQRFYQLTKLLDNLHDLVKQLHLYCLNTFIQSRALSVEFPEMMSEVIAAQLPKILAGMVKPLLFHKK", "conditions": "T47D cells transfected with MMTV-CAT; cited from earlier work"}, "breast cancer samples": {"test_system": "breast cancer samples", "assay": "Cultured breast cancer slices (chopper), Ki67", "assay_type": "cell-based, human", "conditions": "10 nM, 48 hs", "text": "Sections of formalin-fixed, paraffin-embedded tissue were stained with PR (C-19), or Ki67 (Dako, […]) antibodies using the avidin-biotin-peroxidase complex technique (Vectastain Elite ABC kit; Vector), as described previously (6). Positive cells were counted in 10 high-power fields (HPFs) of each section, using 1000× magnification, and expressed as the mean±SEM of the ratio between the number of positive events and the total cell number. Following the previous experiments shown in PART 1, breast cancer samples obtained after surgery from the Hospital General Pacheco (IRB approved by Hospital and IBYME) were used. Whenever possible, part of the sample is immediately frozen to be used in Western blot studies, other part is fixed to be used in IHC studies and a similar part is kept in medium culture. Slices obtained using a chopper were cultured for 48 hs with DMEM/F12 without phenol red and 10% fetal cal serum with or without MFP 10 nM. Tumor slices were then fixed, paraffin embedded and processed for immunohistochemistry. Cell proliferation was evaluated using Ki67 as described above. The number of slices depends on the sample size."}, "[1]": {"test_system": "C4-HI or C4-HIR epithelial cells with carcinoma-associated fibroblasts", "assay": "(3H)-thymidine uptake, co-cultures with carcinoma-associated fibroblasts", "assay_type": "cell-based, mouse", "conditions": "own or other tumor's fibroblasts", "experimental": "Trypsinized cells were resuspended and equal amounts of epithelial cells and carcinoma-associated fibroblasts were seeded with 10% FCS that was replaced after attachment by 1% steroid-stripped FCS. […] The same amount of epithelial cells or carcinoma-associated fibroblasts or double the amount of purified cells was used for comparison.\n(3H)-thymidine-uptake was used as an indirect method to evaluate cell proliferation. In brief, cells were seeded into 96-well microplates. After attachment (24 h), the cells were incubated for 24 h with 1% steroid-stripped FCS and then for 48 h with the experimental solutions to be tested in 1% chFCS. Fifty percent of the medium was replaced with fresh medium every 24 h. The cells were incubated with 0.4 μCi of 3H-thymidine (specific activity: 20 Ci/mmol) for 24 h, trypsinized, and harvested in a cell harvester. In experiments in which 5azadC was used, the experiments were carried out using proliferating cells (presence of 10% FCS) to guarantee the effect of the demethylating agent. Three different experiments were made using octuplicates, and the means and standard deviations of one representative experiment of the other three are shown. The results are expressed as the proliferation index (cpm […] experimental group/cpm control; mean±SEM)."}, "[2]": {"test_system": "DMBA-induced mammary tumors", "conditions": "cited from earlier work"}, "[3]": {"test_system": "BT-474 and T47D xenografts", "conditions": "25 mg; mice treated with E2 followed by MPA; cited from earlier work"}, "[4]": {"test_system": "MXT mouse model of breast cancer", "conditions": "1 or 10 mg/kg/day from one day post-transplantation; cited from earlier work"}, "MCF-7 cells": {"test_system": "MCF-7 cells", "conditions": "cited from earlier work"}, "C4-HI": {"test_system": "C4-HI", "conditions": "concentrations lower than growth inhibitory ones; cited from earlier work"}, "HI-responsive tumors": {"test_system": "HI-responsive tumors", "assay": "MPA breast cancer model, HI-responsive tumors in vivo", "parameters": "species or system mouse", "conditions": "1 mg/kg/day"}}, "data": [{"smiles": "CC#C[C@]1(O)CC[C@H]2[C@@H]3CCC4=CC(=O)CCC4=C3[C@@H](c3ccc(N(C)C)cc3)C[C@@]21C", "note": "[RU-486, mifepristone]", "values": [{"measurement": "effect in cells treated with analogs of cyclic AMP", "setting": "PR", "value": "exerts an agonistic effect"}, {"measurement": "Ki67", "setting": "breast cancer samples; 1 PR negative case", "value": "no inhibition was observed"}, {"measurement": "Ki67", "setting": "breast cancer samples; 1 case PRA/PRB lower than 1", "value": "significant inhibition"}, {"measurement": "Ki67", "setting": "breast cancer samples; 2 cases PRA/PRB lower than 1", "value": "no inhibition was observed"}, {"measurement": "Ki67", "setting": "breast cancer samples; 3 cases PRA/PRB high", "value": "significant inhibition of Ki67"}, {"measurement": "Ki67, stimulation", "setting": "breast cancer samples; PRA/PRB lower than 1, FIG. 25", "value": "significant stimulation"}, {"measurement": "co-culture cell proliferation", "setting": "[1]", "value": "inhibited"}, {"measurement": "tumor development", "setting": "[2]; 10 mg/kg/day for 3 weeks", "value": "delayed tumor development"}, {"measurement": "tumor growth", "setting": "[2]; 10 mg/kg/day for 3 weeks", "value": "inhibited tumor growth"}, {"measurement": "PR (and ER) expression", "setting": "[2]; rat, in vivo", "value": "induced down regulation of the PR"}, {"measurement": "growth of xenografts", "setting": "[3]", "value": "prevent the growth"}, {"measurement": "tumor take and stimulatory effects of E2 and MPA", "setting": "[4]", "value": "inhibited both tumor take and the stimulatory effects of E2 and MPA"}, {"measurement": "E2-induced cell proliferation", "setting": "MCF-7 cells; 10 nM, 10% steroid-deficient human serum", "value": "inhibited E2-induced cell proliferation"}, {"measurement": "PR-mediated cell proliferation", "setting": "MCF-7 cells", "value": "inhibited PR-mediated cell proliferation"}, {"measurement": "progesterone-induced cell proliferation", "setting": "MCF-7 cells; nanomolar concentrations", "value": "inhibit progesterone-induced cell proliferation"}, {"measurement": "tumor growth at low doses", "setting": "C4-HI", "value": "stimulated C4-HI growth"}, {"measurement": "tumor growth", "setting": "HI-responsive tumors", "value": "inhibitory effects"}]}]}
